PubChem BioAssay AID248 (DTP/NCI, 2004)
“And” between values parts separate entries of the source, which are not always exact repeats. Equal values may be shown once. Toxic doses and inconclusive results are not listed. Cut-off read from the data, not from the text of the source: active = T/C of 150% or more; inactive = T/C below 125%.

Tested on: L1210 leukemia ip in BDF1 mice, survival T/C
Test: NCI In Vivo Anticancer Drug Screen. Data for tumor model L1210 Leukemia (intraperitoneal) in B6D2F1 (BDF1) mice
Conditions: endpoint: mean survival time, higher = longer survival
Outline: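 Value reflects the ratio of survival in compound-treated mice to survival in vehicle-treated controls, with both groups carrying the same transplanted tumor.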

[1] = dose: 16.0 mg/kg/injection, schedule: Q01DX Z (ip), vehicle: carboxymethylcellulose (CMC)
[2] = dose: 100.0 mg/kg/injection, schedule: Q01DX009 (ip), vehicle: Klucel (hydroxypropylcellulose) (HPC)
[3] = dose: 100.0 mg/kg/injection, schedule: Q04DX003 (ip), vehicle: Klucel (hydroxypropylcellulose) (HPC)
[4] = dose: 200.0 mg/kg/injection, schedule: Q01DX009 (ip), vehicle: Klucel (hydroxypropylcellulose) (HPC)
[5] = dose: 200.0 mg/kg/injection, schedule: Q04DX003 (ip), vehicle: Klucel (hydroxypropylcellulose) (HPC)
[6] = dose: 400.0 mg/kg/injection, schedule: Q01DX009 (ip), vehicle: Klucel (hydroxypropylcellulose) (HPC)
[7] = dose: 400.0 mg/kg/injection, schedule: Q04DX003 (ip), vehicle: Klucel (hydroxypropylcellulose) (HPC)
[8] = dose: 50.0 mg/kg/injection, schedule: Q01DX009 (ip), vehicle: Klucel (hydroxypropylcellulose) (HPC)
[9] = dose: 100.0 mg/kg/injection, schedule: Q04DX002 (ip), vehicle: saline
[10] = dose: 200.0 mg/kg/injection, schedule: Q04DX002 (ip), vehicle: saline
[11] = dose: 400.0 mg/kg/injection, schedule: Q04DX002 (ip), vehicle: saline

Measured: T/C

COc1ccc(NC(=O)Nc2ccc(C3=NCCN3)cc2)cc1NC(=O)Nc1ccc(C2=NCCN2)cc1
inactive: dose: 8.0 mg/kg/injection, schedule: Q01DX Z (ip), vehicle: carboxymethylcellulose (CMC) 107 % of control | [1] 102 % of control | dose: 31.0 mg/kg/injection, schedule: Q01DX Z (ip), vehicle: carboxymethylcellulose (CMC) 100 % of control | dose: 62.0 mg/kg/injection, schedule: Q01DX Z (ip), vehicle: carboxymethylcellulose (CMC) 104 % of control | dose: 125.0 mg/kg/injection, schedule: Q01DX Z (ip), vehicle: carboxymethylcellulose (CMC) 102 % of control

O=C1/C(=C\c2ccccc2)SC(=Nc2ccccc2)N1c1ccccc1
inactive: [2] 101 % of control | [3] 104 % of control | [4] 98 % of control | [5] 96 % of control | [6] 93 % of control | [7] 94 % of control

O=C(Nc1ccc(Cl)c(C(F)(F)F)c1)OCc1ccco1
inactive: dose: 100.0 mg/kg/injection, schedule: Q01DX009 (ip), vehicle: gum acacia 93 % of control | dose: 200.0 mg/kg/injection, schedule: Q01DX009 (ip), vehicle: gum acacia 100 % of control | dose: 400.0 mg/kg/injection, schedule: Q01DX009 (ip), vehicle: gum acacia 92 % of control

CCCCN(CCCC)C(=N)OC1CCCCC1
inactive: dose: 8.8 mg/kg/injection, schedule: Q01DX Z (ip), vehicle: methylcellulose (MC) 93 % of control | dose: 13.3 mg/kg/injection, schedule: Q01DX Z (ip), vehicle: methylcellulose (MC) 91 % of control | dose: 20.0 mg/kg/injection, schedule: Q01DX Z (ip), vehicle: methylcellulose (MC) 97 % of control

CC(=O)C1CCC2C3CCC4=CC(=O)CC4(C)C3CCC12C (stereo unspecified)
inactive: dose: 50.0 mg/kg/injection, schedule: Q01DX009 (ip), vehicle: saline with Tween-80 113 % of control | dose: 100.0 mg/kg/injection, schedule: Q01DX009 (ip), vehicle: saline with Tween-80 105 % of control | dose: 200.0 mg/kg/injection, schedule: Q01DX009 (ip), vehicle: saline with Tween-80 90 % of control

CCOC(=O)C(C(=O)OCC)C1c2ccccc2C(=NO)c2ccccc21 (stereo unspecified)
inactive: [8] 96 % of control | [2] 98 % of control | [3] 88 % of control | [4] 94 % of control | [5] 92 % of control

C/C(=N/N(C)C)c1ccccc1
inactive: [9] 97 % of control | [3] 112 % of control | [10] 108 % of control | [5] 95 % of control | [11] 108 % of control | [7] 90 % of control

CCCC(=O)C(CC)C(O)(C(F)(F)F)C(F)(F)F (stereo unspecified)
inactive: dose: 100.0 mg/kg/injection, schedule: Q01DX009 (ip), vehicle: saline 92 % of control | dose: 200.0 mg/kg/injection, schedule: Q01DX009 (ip), vehicle: saline 94 % of control

CCSC1OC(COS(C)(=O)=O)C(OS(C)(=O)=O)C1NC(C)=O (stereo unspecified)
inactive: dose: 50.0 mg/kg/injection, schedule: Q01DX001 (ip), vehicle: carboxymethylcellulose (CMC) 97 % of control | dose: 100.0 mg/kg/injection, schedule: Q01DX001 (ip), vehicle: carboxymethylcellulose (CMC) 97 % of control | dose: 200.0 mg/kg/injection, schedule: Q01DX001 (ip), vehicle: carboxymethylcellulose (CMC) 92 % of control | dose: 400.0 mg/kg/injection, schedule: Q01DX001 (ip), vehicle: carboxymethylcellulose (CMC) 97 % of control

CC(=O)Nc1ccc(C(=O)O)cc1
inactive: dose: 100.0 mg/kg/injection, schedule: Q04DX002 (ip), vehicle: Klucel (hydroxypropylcellulose) (HPC) 88 % of control | dose: 200.0 mg/kg/injection, schedule: Q04DX002 (ip), vehicle: Klucel (hydroxypropylcellulose) (HPC) 92 % of control | dose: 400.0 mg/kg/injection, schedule: Q04DX002 (ip), vehicle: Klucel (hydroxypropylcellulose) (HPC) 111 % of control

O=S(=O)(O)C(Cl)c1ccccc1 (stereo unspecified)
inactive: [9] 105 % of control | [10] 102 % of control | [11] 98 % of control

CC(=O)NC1CCC(Br)CC1 (stereo unspecified)
inactive: [8] 94 % of control | [2] 105 % of control | [4] 102 % of control

O=C1Nc2ccc3c4c(ccc1c24)CC3
inactive: dose: 50.0 mg/kg/injection, schedule: Q01DX001 (ip), vehicle: saline 104 % of control | dose: 100.0 mg/kg/injection, schedule: Q01DX001 (ip), vehicle: saline 95 % of control | dose: 200.0 mg/kg/injection, schedule: Q01DX001 (ip), vehicle: saline 98 % of control | dose: 400.0 mg/kg/injection, schedule: Q01DX001 (ip), vehicle: saline 98 % of control

CCCCOP(=S)(OCCCC)[S][Hg][c]1ccco1
inactive: dose: 25.0 mg/kg/injection, schedule: Q04DX002 (ip), vehicle: alcohol 97 % of control | dose: 50.0 mg/kg/injection, schedule: Q04DX002 (ip), vehicle: alcohol 97 % of control

OC1COC(c2ccco2)OC1 (stereo unspecified) (tested in a mixture with another compound)
inactive: [2] 94 % of control | [3] 102 % of control | [4] 105 % of control | [5] 101 % of control | [7] 102 % of control

CCCCCCCCCCCCCCCOc1c(Cl)c(Cl)c(Cl)c(Cl)c1Cl
inactive: [3] 95 % of control | [5] 90 % of control | [7] 95 % of control

O=C(O)/C=C/[P+](c1ccccc1)(c1ccccc1)c1ccccc1
inactive: dose: 5.0 mg/kg/injection, schedule: Q01DX001 (ip), vehicle: saline 101 % of control | dose: 10.0 mg/kg/injection, schedule: Q01DX001 (ip), vehicle: saline 106 % of control | dose: 20.0 mg/kg/injection, schedule: Q01DX001 (ip), vehicle: saline 101 % of control

O=C(COc1cc(Cl)c(Cl)cc1Cl)Nc1cccc(O)c1
inactive: [2] 101 % of control | [4] 96 % of control | [6] 115 % of control

CS(=O)(=O)OCCC(=O)NCNC(=O)CCOS(C)(=O)=O
inactive: dose: 10.6 mg/kg/injection, schedule: Q01DX Z (ip), vehicle: carboxymethylcellulose (CMC) 117 % of control and 120 % of control | [1] 109 % of control | dose: 18.8 mg/kg/injection, schedule: Q01DX Z (ip), vehicle: carboxymethylcellulose (CMC) 124 % of control | dose: 24.0 mg/kg/injection, schedule: Q01DX Z (ip), vehicle: carboxymethylcellulose (CMC) 123 % of control | dose: 28.0 mg/kg/injection, schedule: Q01DX Z (ip), vehicle: carboxymethylcellulose (CMC) 124 % of control | dose: 54.0 mg/kg/injection, schedule: Q01DX Z (ip), vehicle: carboxymethylcellulose (CMC) 122 % of control | dose: 81.0 mg/kg/injection, schedule: Q01DX Z (ip), vehicle: carboxymethylcellulose (CMC) 117 % of control | dose: 84.0 mg/kg/injection, schedule: Q01DX Z (ip), vehicle: carboxymethylcellulose (CMC) 109 % of control | dose: 90.0 mg/kg/injection, schedule: Q01DX Z (ip), vehicle: carboxymethylcellulose (CMC) 121 % of control | dose: 95.0 mg/kg/injection, schedule: Q01DX Z (ip), vehicle: carboxymethylcellulose (CMC) 119 % of control
